These results are taken from PMC12040169 (PLOS Biology, 2025).

This series is described as follows: in vitro. The following applies: human, hela cells, % viability.
As for `O=S(=O)(Cc1ccc(Cl)cc1)N1CCN(Cc2ccc3c(c2)OCO3)CC1` [CBK074827], the viability at 28.5 h, 10 µM was 101%.

`O=S1(=O)CCN(Cc2ccc3c(c2)OCCCO3)CC1` [CBK074831]: the viability at 28.5 h, 10 µM was found to be 101%. As for `COc1ccccc1N1CCN(CCCCNS(=O)(=O)c2ccc(Cl)c(Cl)c2)CC1` [CBK074837], the figure is 97.8%; as for `O=C(CN1C(=O)c2ccccc2C1=O)N1CCN(Cc2ccc3c(c2)OCO3)CC1` [CBK074846], 97.3%; as for `O=C1c2cccc3cccc(c23)C(=O)N1CCN1CCN(CC(O)COc2ccc3c(c2)OCO3)CC1` (centres unmarked) [CBK074849C], 87.4%. As for `OC(COCc1ccc2c(c1)OCO2)CN1CCN(C(c2ccccc2)c2ccccc2)CC1` (centres unmarked) [CBK074850C], the figure is 83.2%.

On to `OC(COCc1ccccc1)CN1CCN(c2ccccc2F)CC1` (centres unmarked) [CBK074851C], for which the viability at 28.5 h, 10 µM was 92.6%. Under `OC(COc1ccccc1)CN1CCN(Cc2ccccc2)CC1` (centres unmarked) [CBK074852C] stands 93%; under `OC(COCc1ccc(Cl)cc1)CN1CCN(C(c2ccccc2)c2ccccc2)CC1` (centres unmarked) [CBK074857C], 86.3%; under `CC(CN1CCN(Cc2ccccc2)CC1)N(C(=O)c1ccoc1)c1ccccn1` (centres unmarked) [CBK074861C], 92.1%. Under `C=C(C)c1cccc(C(C)(C)NC(=O)N2CCC(C(=O)NC(c3ccc(OC)nc3)c3ccccc3C)CC2)c1` (centres unmarked) [CBK074871] stands 92.2%. Under `Cc1ccc(-n2c(O)nnc2-c2ccc(Cl)c(Cl)c2)cc1` [CBK074887] stands 94.5%; under `Oc1nnc(-c2ccc(Cl)c(Cl)c2)n1C1CCCCC1` [CBK074888], 97.9%; under `c1ccc(CNc2nnc(-c3ccccc3)s2)cc1` [CBK074928], 87.7%. In the case of `COC(=O)CCC(=O)N1CCc2c([nH]c3ccccc23)C12CCN(CCCc1ccccc1OC)C2` (centres unmarked) [CBK074952], the viability at 28.5 h, 10 µM amounted to 93.9%. As for `Cn1c(-c2ccc(C(=O)O)cc2)cc2oc(-c3ccccc3)nc2c1=O` [CBK074957], the figure is 98%; as for `CSc1nnc(-c2ccccc2[N+](=O)[O-])n1CC(C)C` [CBK074959], 98.4%. As for `COc1ccc([C@@]23CC[C@@H](NC(=O)c4ccc(F)c(C(F)(F)F)c4)C[C@@H]2N(C)CC3)cc1OC` [CBK074967T], the figure is 93.6%; as for `O=S(=O)(Nc1cc(OC2CCNCC2)c2occc2c1)c1c(Cl)cccc1Cl` [CBK074989C], 64.3%.

Turning to `CCCc1[nH]nc(O)c1Cc1ccc(Cl)cc1` [CBK075013], the viability at 28.5 h, 10 µM turned out to be 90%. Under `CCCc1[nH]nc(O)c1Cc1ccc(F)cc1F` [CBK075015] stands 85.7%; under `CCCc1[nH]nc(O)c1Cc1ccc(C(C)(C)C)cc1` [CBK075028], 79.5%. Under `CCCc1[nH]nc(O)c1Cc1c(F)cccc1[N+](=O)[O-]` [CBK075029] stands 89.5%; under `CCCc1[nH]nc(O)c1Cc1cc(C(F)(F)F)ccc1Cl` [CBK075032], 96.9%. With `CCCc1[nH]nc(O)c1Cc1ccc(C(C)C)cc1` [CBK075033], the viability at 28.5 h, 10 µM amounted to 106%. As to `CCCc1[nH]nc(O)c1Cc1ccccc1-c1ccccc1` [CBK075034], the viability at 28.5 h, 10 µM came to 97.2%. `CC(C)(C)c1nn(CC2CCCCC2)c(=N)s1` [CBK075042]: the viability at 28.5 h, 10 µM stood at 96.2%. Under `CC(C)(C)c1nnc(NCC2CCCCC2)s1` [CBK075043] stands 101%; under `CCc1nnc(NCC2CCCCC2)s1` [CBK075044], 88.1%; under `COc1ccc(C(NC(=O)[C@H]2CCCN2C(=O)NCc2ccccc2C)c2ccccc2C)cn1` (some centres unmarked) [CBK075051], 90.9%. As for `COc1ccc(C(NC(=O)[C@H]2CCCN2C(=O)Cc2cccs2)c2ccccc2C)cn1` (some centres unmarked) [CBK075053], the figure is 87%; as for `CCCc1[nH]nc(O)c1CCc1cccc(OC)c1OC` [CBK075078], 97%; as for `CCCc1[nH]nc(O)c1CCc1ccccc1F` [CBK075080], 88.5%. `CCCc1[nH]nc(O)c1CCc1ccccc1C(F)(F)F` [CBK075081]: the viability at 28.5 h, 10 µM is 93.9%.

For `CCCCNC(=S)N1CC[C@@H]2CN(C)C[C@]2(c2ccc(OC)c(OC)c2)C1` [CBK075101T], the viability at 28.5 h, 10 µM was 100%. As for `COc1ccc([C@]23CN(C)C[C@H]2CCN(C(=O)c2cccc(Br)c2)C3)cc1OC` [CBK075111T], the figure is 96.7%. Turning to `CCCc1[nH]nc(O)c1-c1cccc2ccccc12` [CBK075125], the viability at 28.5 h, 10 µM worked out at 94%. As for `COc1ccccc1-c1c(O)n[nH]c1CCC1CCCC1` [CBK075128], the figure is 97.5%; as for `CC(C)Cc1[nH]nc(O)c1-c1ccccc1` [CBK075134], 103%; as for `CCCc1[nH]nc(O)c1-c1ccc(OC)cc1` [CBK075135], 96.1%. As for `C=CCN1C(=O)C2(CC(=O)N(C)C2=O)c2ccccc21` (centres unmarked) [CBK075137], the figure is 93.6%; as for `CCN1C(=O)CC2(C1=O)C(=O)N(CC)c1ccc(C)cc12` (centres unmarked) [CBK075140], 99.4%; as for `COc1ccc2c(c1)C1(CC(=O)N(C)C1=O)C(=O)N2C` (centres unmarked) [CBK075146], 115%. Under `COc1ccc2c(c1)C1(CC(=O)N(CCC3CCCCC3)C1=O)C(=O)N2C` (centres unmarked) [CBK075147] stands 120%; under `COc1ccc2c(c1)C1(CC(=O)N(Cc3ccc(OC)c(OC)c3)C1=O)C(=O)N2C` (centres unmarked) [CBK075157], 94.4%.

In the case of `C=CCN1C(=O)CC2(C1=O)C(=O)N(C)c1ccc(OC)cc12` (centres unmarked) [CBK075158], the viability at 28.5 h, 10 µM was 101%. As for `C=CCN1C(=O)C2(CC(=O)N(CCC3CCCCC3)C2=O)c2ccccc21` (centres unmarked) [CBK075160], the figure is 107%; as for `CN1C(=O)CC2(C1=O)C(=O)N(Cc1ccccc1)c1ccc(F)cc12` (centres unmarked) [CBK075163], 90.5%; as for `COc1ccc2c(c1)C1(CC(=O)N(CCOc3ccccc3)C1=O)C(=O)N2C` (centres unmarked) [CBK075168], 95.2%. Under `COc1ccc(CN2C(=O)CC3(C2=O)C(=O)N(Cc2ccccc2)c2ccc(F)cc23)cc1OC` (centres unmarked) [CBK075174] stands 108%. As for `O=C1CC2(C(=O)N1CCC1CCCCC1)C(=O)N(Cc1ccccc1)c1ccc(F)cc12` (centres unmarked) [CBK075175], the figure is 91%; as for `CNC(=O)CN1C(=O)CC2(C1=O)C(=O)N(C)c1ccc(OC)cc12` (centres unmarked) [CBK075190], 91.5%; as for `COc1cccc(CCN2C(=O)CC3(C2=O)C(=O)N(C)c2ccc(OC)cc23)c1` (centres unmarked) [CBK075191], 94.6%. For the compound `COc1ccc2c(c1)C1(CC(=O)N(CC3CCCCC3)C1=O)C(=O)N2C` (centres unmarked) [CBK075201], the viability at 28.5 h, 10 µM amounted to 100%. Under `CCN1C(=O)C2(CC(=O)N(CC3CCCCC3)C2=O)c2cc(C)ccc21` (centres unmarked) [CBK075216] stands 98.2%; under `C=CCN1C(=O)C2(CC(=O)N(CC(=O)N(C)C)C2=O)c2cc(OC)ccc21` (centres unmarked) [CBK075227], 92.3%; under `CN1C(=O)C2(CC(=O)N(CCC3CCCCC3)C2=O)c2cc(Cl)ccc21` (centres unmarked) [CBK075231], 92%. As for `CN(C)C(=O)CN1C(=O)CC2(C1=O)C(=O)N(C)c1ccc(Cl)cc12` (centres unmarked) [CBK075232], the figure is 90.2%; as for `CCN1C(=O)C2(CC(=O)N(CCOC)C2=O)c2cc(Cl)ccc21` (centres unmarked) [CBK075244], 121%; as for `CN1C(=O)CC2(C1=O)C(=O)N(C)c1ccc(F)cc12` (centres unmarked) [CBK075290], 105%. As for `C=CCN1C(=O)C2(CC(=O)N(CCCN(C)S(C)(=O)=O)C2=O)c2cc(F)ccc21` (centres unmarked) [CBK075319], the figure is 100%; as for `COCCN1C(=O)C2(CC(=O)N(CCc3scnc3C)C2=O)c2cc(Cl)ccc21` (centres unmarked) [CBK075321], 93.6%.

As to `COCCN1C(=O)C2(CC(=O)N(CCOc3ccccc3)C2=O)c2ccccc21` (centres unmarked) [CBK075322], the viability at 28.5 h, 10 µM worked out at 98.5%. As for `COCCN1C(=O)C2(CC(=O)N(CC(=O)C(C)(C)C)C2=O)c2ccccc21` (centres unmarked) [CBK075324], the figure is 118%; as for `CN(C)C(=O)CCCN1C(=O)CC2(C1=O)C(=O)N(C)c1ccc(F)cc12` (centres unmarked) [CBK075380], 103%. Under `COCCN1C(=O)C2(CC(=O)N(C)C2=O)c2ccccc21` (centres unmarked) [CBK075387] stands 102%; under `CNC(=O)CN1C(=O)CC2(C1=O)C(=O)N(CCOC)c1ccc(C)cc12` (centres unmarked) [CBK075401], 97.1%. As for `CN1C(=O)CC2(C1=O)C(=O)N(CCCCOc1ccccc1)c1ccc(F)cc12` (centres unmarked) [CBK075408], the figure is 96%; as for `C=CCN1C(=O)CC2(C1=O)C(=O)N(CCn1cnc3c1c(=O)n(C)c(=O)n3C)c1ccc(Cl)cc12` (centres unmarked) [CBK075410], 94.8%. As for `C=CCN1C(=O)CC2(C1=O)C(=O)N(CCCn1c(=O)n(C)c3ccccc31)c1ccc(Cl)cc12` (centres unmarked) [CBK075411], the viability at 28.5 h, 10 µM amounted to 94.6%. As for `CN1C(=O)CC2(C1=O)C(=O)N(CC(=O)c1ccccc1)c1ccc(F)cc12` (centres unmarked) [CBK075420], the figure is 95.4%. As for `COCCN1C(=O)C2(CC(=O)N(CC(=O)N(C)C)C2=O)c2cc(F)ccc21` (centres unmarked) [CBK075428], the viability at 28.5 h, 10 µM came to 104%. Under `COc1ccccc1OCCCN1C(=O)C2(CC(=O)N(C)C2=O)c2cc(F)ccc21` (centres unmarked) [CBK075430] stands 88.2%; under `C=CCN1C(=O)CC2(C1=O)C(=O)N(CCCN(C)S(C)(=O)=O)c1ccc(Cl)cc12` (centres unmarked) [CBK075432], 97.3%. Under `C=CCN1C(=O)CC2(C1=O)C(=O)N(Cc1nnc(-c3ccc(C)cc3)o1)c1ccc(Cl)cc12` (centres unmarked) [CBK075434] stands 104%. As for `CN1C(=O)CC2(C1=O)C(=O)N(CCCn1c(=O)n(C)c3ccccc31)c1ccc(F)cc12` (centres unmarked) [CBK075441], the figure is 110%; as for `CN1C(=O)CC2(C1=O)C(=O)N(Cc1nc(-c3ccc(Cl)cc3)no1)c1ccc(F)cc12` (centres unmarked) [CBK075442], 87.8%.
